Our source for the Concentration (nM (10e6*cells)-1), Concentration and IC50 values is ChEMBL document CHEMBL1131189, “Conformationally restricted analogues of 1N,12N-bisethylspermine: synthesis and growth inhibitory effects on human tumor cell lines” (1998).

Assay [1] relates to DU-145. Briefly: The concentration levels of analogue evaluated in DU145 cells treated with the compound concentration of 5 uM on third day of treatment. It counts as functional, cell-based. Particulars: Homo sapiens.
Assay [2] relates to DU-145. Put plainly: The concentration levels of spermidine (SD) evaluated in DU145 cells treated with the compound concentration of 5 uM on fifth day of treatment. It counts as functional, cell-based. The note with it: Homo sapiens.
The subject of assay [3] is DU-145. Put plainly: The concentration levels of putrescine (PU) evaluated in DU145 cells treated with the compound concentration of 0.02 uM on fifth day of treatment. The note with it: Homo sapiens. It counts as functional, cell-based.
The test system of assay [4] is DU-145. Briefly: The concentration levels of spermidine (SD) evaluated in DU145 cells treated with the compound concentration of 0.02 uM on fifth day of treatment. It counts as functional, cell-based. The note with it: Homo sapiens.
Assay [5] has as its system DU-145. Briefly: The concentration levels of analogue evaluated in DU145 cells treated with the compound concentration of 0.02 uM on third day of treatment. It counts as functional, cell-based. Particulars: Homo sapiens.
Assay [6] deals with DU-145. Briefly: The concentration levels of analogue evaluated in DU145 cells treated with the compound concentration of 5 uM on fifth day of treatment. It counts as functional, cell-based. The note with it: Homo sapiens.
The test system of assay [7] is DU-145. Briefly: The concentration levels of putrescine (PU) evaluated in DU145 cells treated with the compound concentration of 0.02 uM on third day of treatment. In kind it is functional, cell-based. The note with it: Homo sapiens.
The subject of assay [8] is DU-145. Put plainly: The concentration levels of analogue evaluated in DU145 cells treated with the compound concentration of 0.02 uM on fifth day of treatment. It counts as functional, cell-based. The note with it: Homo sapiens.
Assay [9] relates to DU-145. Briefly: The concentration levels of spermidine (SD), evaluated in DU145 cells treated with the compound concentration of 5 uM on third day of treatment. In kind it is functional, cell-based. Particulars: Homo sapiens.
Assay [10] relates to DU-145. Briefly: The concentration levels of spermidine (SD), evaluated in DU145 cells treated with the compound concentration of 0.02 uM on third day of treatment. Particulars: Homo sapiens. In kind it is functional, cell-based.
The subject of assay [11] is DU-145. Briefly: The concentration levels of spermine (SP), evaluated in DU145 cells treated with the compound concentration of 0.02 uM on third day of treatment. In kind it is functional, cell-based. Particulars: Homo sapiens.
Assay [12] relates to DU-145. Put plainly: The concentration levels of putrescine (PU) evaluated in DU145 cells treated with the compound concentration of 5 uM on fifth day of treatment. It counts as functional, cell-based. Particulars: Homo sapiens.
Assay [13] relates to DU-145. Briefly: The concentration levels of putrescine (PU) evaluated in DU145 cells treated with the compound concentration of 5 uM on third day of treatment. It counts as functional, cell-based. The note with it: Homo sapiens.
In assay [14] the test system is DU-145. Put plainly: The concentration levels of spermine (SP) evaluated in DU145 cells treated with the compound concentration of 5 uM on fifth day of treatment. It counts as functional, cell-based. The note with it: Homo sapiens.
Assay [15] concerns DU-145. Briefly: The concentration levels of spermine (SP) evaluated in DU145 cells treated with the compound concentration of 0.02 uM on fifth day of treatment. It counts as functional, cell-based. Particulars: Homo sapiens.
For assay [16], the system named is DU-145. Put plainly: The concentration levels of spermine (SP), evaluated in DU145 cells treated with the compound concentration of 5 uM on third day of treatment. In kind it is functional, cell-based. Particulars: Homo sapiens.
Assay [17] concerns DU-145. Put plainly: The concentration levels of spermine (SP) evaluated in DU145 cells treated with the compound concentration of 2 uM on third day of treatment. It counts as functional, cell-based. The note with it: Homo sapiens.
The subject of assay [18] is DU-145. Put plainly: The concentration levels of spermine (SP) evaluated in DU145 cells treated with the compound concentration of 0.02 uM on third day of treatment. It counts as functional, cell-based. Particulars: Homo sapiens.
The test system of assay [19] is DU-145. Briefly: The concentration levels of putrescine (PU) evaluated in DU145 cells treated with the compound concentration of 2 uM on first day of treatment; Not quanitfiable. It counts as functional, cell-based. The note with it: Homo sapiens.
For assay [20], the system named is DU-145. Put plainly: The concentration levels of analogue evaluated in DU145 cells treated with the compound concentration of 2 uM on first day of treatment. It counts as functional, cell-based. The note with it: Homo sapiens.
Assay [21] has as its system DU-145. Briefly: The concentration levels of spermine (SP), evaluated in DU145 cells treated with the compound concentration of 0.02 uM on first day of treatment. In kind it is functional, cell-based. Particulars: Homo sapiens.
Assay [22] concerns DU-145. Briefly: The concentration levels of spermidine (SD) evaluated in DU145 cells treated with the compound concentration of 2 uM on third day of treatment; Not quantifiable. It counts as functional, cell-based. Particulars: Homo sapiens.
Assay [23] deals with DU-145. Briefly: The concentration levels of spermine (SP), evaluated in DU145 cells treated with the compound concentration of 2 uM on first day of treatment. It counts as functional, cell-based. The note with it: Homo sapiens.
The subject of assay [24] is DU-145. Briefly: The concentration levels of putrescine (PU) evaluated in DU145 cells treated with the compound concentration of 2 uM on third day of treatment; Not quantifiable. In kind it is functional, cell-based. Particulars: Homo sapiens.
The test system of assay [25] is DU-145. Put plainly: The concentration levels of analogue evaluated in DU145 cells treated with the compound concentration of 2 uM on third day of treatment. It counts as functional, cell-based. Particulars: Homo sapiens.
For assay [26], the system named is DU-145. Briefly: The concentration levels of analogue evaluated in DU145 cells treated with the compound concentration of 0.02 uM on first day of treatment. In kind it is functional, cell-based. Particulars: Homo sapiens.
In assay [27] the test system is DU-145. Briefly: The concentration levels of spermidine (SD), evaluated in DU145 cells treated with the compound concentration of 0.02 uM on first day of treatment. In kind it is functional, cell-based. The note with it: Homo sapiens.
In assay [28] the test system is DU-145. Briefly: The concentration levels of spermidine (SD), evaluated in DU145 cells treated with the compound concentration of 2 uM on first day of treatment. In kind it is functional, cell-based. Particulars: Homo sapiens.
Assay [29] relates to DU-145. Briefly: The concentration levels of spermidine (SD) evaluated in DU145 cells treated with the compound concentration of 0.02 uM on third day of treatment. It counts as functional, cell-based. The note with it: Homo sapiens.
Assay [30] concerns DU-145. Put plainly: The concentration levels of putrescine (PU) evaluated in DU145 cells treated with the compound concentration of 0.02 uM on first day of treatment. In kind it is functional, cell-based. The note with it: Homo sapiens.
A further assay concerns HT-29. Put plainly: Growth inhibitory activity was measured for human HT-29 tumor cell line. The note with it: Homo sapiens, HT-29; read-out: ID50 (the source's name). In kind it is functional.
For the next assay, the system named is MCF7. Briefly: Growth inhibitory activity was measured for human MCF-7 tumor cell line. In kind it is functional. The note with it: read-out: ID50 (the source's name).
A further assay relates to U-251. Briefly: Growth inhibitory activity was measured for human U251MG NCI tumor cell line. In kind it is functional. The note with it: read-out: ID50 (the source's name).
Assay [31] deals with DU-145. Put plainly: Growth inhibitory activity was measured for human DU145 tumor cell line. In kind it is functional. Particulars: Homo sapiens, DU-145; read-out: ID50 (the source's name).
The test system of another assay is A549. Briefly: Growth inhibitory activity was measured for human A549 tumor cell line. In kind it is functional. Particulars: Homo sapiens, A549; read-out: ID50 (the source's name).
In a further assay the test system is PC-3. Put plainly: Growth inhibitory activity was measured for human PC-3 tumor cell line. In kind it is functional. Particulars: Homo sapiens, PC-3; read-out: ID50 (the source's name).

Consider `CCNCCCNCC1CCC1CNCCCNCC` (stereo in doubt; 15), for which the Concentration (nM (10e6*cells)-1) was 1.75 in the assay with DU-145 [1]; 0.06 with DU-145 [2]; 0.081 in the assay with DU-145 [3]; 1.6 in the assay with DU-145 [4]; 0.07 with DU-145 [5]; 1.84 in the assay on DU-145 [6]. For the same molecule, the Concentration (nM (10e6*cells)-1) in the assay on DU-145 [7] worked out at 0.162; in the assay with DU-145 [8], 0.05; in the assay with DU-145 [9], 0.15; in the assay on DU-145 [10], 2.13; in the assay on DU-145 [11], 3.54; with DU-145 [12], 0.031. Also, the Concentration (nM (10e6*cells)-1) with DU-145 [13] amounted to 0.036; with DU-145 [14] it was 0.2; in the assay with DU-145 [15] it was 2.1; in the assay with DU-145 [16], 0.49.
As for `CCNCCCNCC1CC1CNCCCNCC` (stereo in doubt; 9), the Concentration (nM (10e6*cells)-1) in the assay with DU-145 [17] is 0.06; in the assay with DU-145 [18] it was 1.97; in the assay with DU-145 [20], 4.08; with DU-145 [5], 0.15; with DU-145 [21], 2.16; in the assay on DU-145 [23], 0.4. Moreover, the Concentration (nM (10e6*cells)-1) stood at 0.05 in the assay on DU-145 [7]; 3.97 with DU-145 [25]; 0.9 with DU-145 [26]; 1.64 in the assay on DU-145 [27]; 0.1 in the assay with DU-145 [28]; 1.01 in the assay on DU-145 [29]. In the assay with DU-145 [30], the Concentration (nM (10e6*cells)-1) came to 0.18. Further, the Concentration result with DU-145 [19], in the assay with DU-145 [22] and with DU-145 [24] was “Not quantifiable” in each case.
On to `CCNCCCNCCCCNCCCNCC` [BIS(ETHYL)SPERMINE], for which the IC50 in the assay with HT-29 was 430 nM; with MCF7, 550 nM; with U-251, 200 nM; with DU-145 [31], 40 nM; with A549, 200 nM; with PC-3, 240 nM.
